Assay results as given in patent publication US5932551A, “Substituted N-carboxyalkylpeptidyl derivatives as antidegenerative active agents” (Merck & Co., Inc., priority 1997, dated 1999).

Columns and labels:
Format in all cases: biochemical
collagenase = biological target: T1, collagenase (Homo sapiens, UniProt P03956); assay: Inhibition of collagenase cleavage of thioester peptide Ac-Pro-Leu-Gly-S-Leu-Leu-Gly-OC2H5; settings: read-out: Inhibition of Collagenase pH = 6.5 (IC50)
T1 sequence (P03956 100-469): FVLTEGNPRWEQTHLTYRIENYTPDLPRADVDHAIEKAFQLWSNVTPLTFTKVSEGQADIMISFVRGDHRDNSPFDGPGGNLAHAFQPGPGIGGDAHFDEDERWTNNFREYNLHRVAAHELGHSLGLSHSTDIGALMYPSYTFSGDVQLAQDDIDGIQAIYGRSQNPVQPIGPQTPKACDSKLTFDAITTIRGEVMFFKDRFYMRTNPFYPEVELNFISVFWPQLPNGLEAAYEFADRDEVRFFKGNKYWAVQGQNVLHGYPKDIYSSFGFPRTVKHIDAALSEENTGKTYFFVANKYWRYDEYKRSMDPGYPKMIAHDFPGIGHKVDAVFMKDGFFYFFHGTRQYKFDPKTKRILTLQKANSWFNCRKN
Excerpt: (§1) The peptide portion is herein designated SEQ ID No: 2:.

[1] = biological target: T2, 72 kD Galatinase (gelatinase) (Homo sapiens, UniProt P08253); assay: Inhibition of gelatinase-mediated cleavage of fluorogenic substrate Dnp-Pro-Leu-Gly-Leu-Trp-Ala-D-ArgNH2; settings: pH = 7.5
T2 sequence (P08253 110-660): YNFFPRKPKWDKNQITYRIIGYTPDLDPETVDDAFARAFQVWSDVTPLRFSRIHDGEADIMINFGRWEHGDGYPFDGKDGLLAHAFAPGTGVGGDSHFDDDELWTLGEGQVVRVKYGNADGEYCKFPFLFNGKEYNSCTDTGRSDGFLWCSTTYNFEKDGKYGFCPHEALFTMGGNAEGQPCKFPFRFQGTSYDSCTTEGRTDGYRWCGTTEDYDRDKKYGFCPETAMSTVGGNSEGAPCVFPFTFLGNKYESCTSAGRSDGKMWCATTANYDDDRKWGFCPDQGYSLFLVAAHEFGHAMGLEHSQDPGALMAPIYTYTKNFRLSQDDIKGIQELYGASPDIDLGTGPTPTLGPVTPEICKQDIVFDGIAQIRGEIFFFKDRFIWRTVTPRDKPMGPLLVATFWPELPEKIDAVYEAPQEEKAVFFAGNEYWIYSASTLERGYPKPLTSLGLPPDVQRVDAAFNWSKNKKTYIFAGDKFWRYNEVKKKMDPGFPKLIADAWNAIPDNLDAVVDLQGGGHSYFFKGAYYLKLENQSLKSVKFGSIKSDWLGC
Excerpt: as §1

stromelysin = stromelysin (Homo sapiens, UniProt P08254); assay: Inhibition of stromelysin-mediated hydrolysis of substance P (HPLC-based assay); settings: pH = 7.5
Chain of stromelysin (P08254 100-477): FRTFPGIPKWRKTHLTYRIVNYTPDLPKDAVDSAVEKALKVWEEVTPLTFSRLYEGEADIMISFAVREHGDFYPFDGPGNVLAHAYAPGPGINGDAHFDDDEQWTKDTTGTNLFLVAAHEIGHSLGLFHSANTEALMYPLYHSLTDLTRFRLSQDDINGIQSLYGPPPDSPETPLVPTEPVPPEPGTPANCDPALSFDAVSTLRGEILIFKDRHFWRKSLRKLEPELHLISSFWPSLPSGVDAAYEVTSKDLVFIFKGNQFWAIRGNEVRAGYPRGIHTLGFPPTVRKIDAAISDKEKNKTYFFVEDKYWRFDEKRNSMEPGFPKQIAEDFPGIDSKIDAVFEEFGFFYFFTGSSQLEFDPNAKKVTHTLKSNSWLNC

Row | IC50 (collagenase) | Ki [1] | IC50 (stromelysin) | SMILES
1 | 60 nM | 930 nM |  | CC(C)C[C@H](NC(=O)[C@H](CCc1ccccc1)N[C@H](C)C(=O)O)C(=O)Nc1ccccc1 [5a, N-[1(R)-Carboxy-ethyl]-α-(S)-(2-phenyl-ethyl)glycine-(L)-leucine, N-phenylamide]
2 | 250 nM | 86 nM | 200 nM | CC(C)C[C@H](NC(=O)[C@H](CCc1ccccc1)N[C@H](CCCCN1C(=O)c2ccccc2C1=O)C(=O)O)C(=O)Nc1ccccc1 [5d]
